Entries after “also recorded” stand apart in the source; their conditions may differ.
What was measured:
Format in all cases: cell-based, human
[1] = tested on: VE-cadherin junctions of HUVEC cells; assay: VE-cadherin junctions of HUVEC cells, immunostaining; conditions: 24 hrs
Procedure: It was thought that these phenotypic changes might be associated with alterations of endothelial cell junctions. To determine if Compound 249 induced disengagement of HUVEC cell junctions, VE-cadherin junctions of HUVEC cells were examined. HUVEC cells were treated with DMSO or Compound 249 (0.1, 1, or 10 nM) for 24 hrs and fixed for immunostaining. DMSO concentration was 1:100 for all treatment. To boost the immunofluorescence signal, cells were stained with a mixture of two polyclonal anti-human VE-cadherin Abs (1:1 mixed, obtained from Amersham Biosciences, N.J., and Santa Cruz Biotechnology, Calif.) followed by staining with a mixture of fluorescent secondary antibodies. […] Non-DMSO treated cells gave a similar result to those with DMSO treatment (data not shown). With 1 nM Compound 249 treatment, VE-cadherin staining was reduced (red arrow in Compound 249 1 nM) compared to that in DMSO or Compound 249 0.1 nM treatment. […] In addition, the potent effect of Compound 249 on microtubule cytoskeletons can also contribute strongly to the cell-cell junction disruption.

[2] = tested on: HUVEC cells; assay: HUVEC cell morphology (shrinkage), time lapse imaging
Procedure: HUVEC cells (ATCC, VA) (passage number 4) were cultured in EGM2 medium (Cambrex, Mass.) on 24-well plates and time lapse imaging was performed in a cell culture system mounted on an inverted microscope supplied with 5% CO2. The temperature was kept at 35° C. Images were taken every 60 sec using 20× objective (FIGS. 1-3) or every 30 min using 2× objective (FIG. 4) for up to 90 hr. FIGS. 1-3 show results from three time points of treatment: 0, 50, 100 min. […] Most shrunken cells were at cell cycle interphase but not mitotic stage, and still moving on the culture surface, as observed in time-lapse movies (data not shown). The shrinking effect caused by Compound 249 (and CA4) is not identical to the apoptotic effect in mitotic cells after microtubule depolymerization.

[3] = tested on: HUVEC cells; assay: HUVEC migration, wound healing assay with time-lapse imaging; conditions: for inhibition of HUVEC migration to the blank area: 24, 48 and 72 hr after treatment, compared to DMSO
Description: Using the above described time-lapse culture system, a wound healing assay was used to analyze the effect of Compound 249 and CA4 on HUVEC cells migration. Confluent HUVEC cultures were scraped similarly to make a blank area. Migration of remaining cells under different treatment was imaged at the same time to generate time-lapse image sequences. Time-lapse movies were further analyzed to calculate the number of cells that migrated to the blank area. In FIG. 4, the gray lines show the front line of cells after scraping and the red lines show the front lines of cells after migration at 24, 48 and 72 hr after treatment.

[4] = 1 nM, compared to DMSO treatment

SMILES	disengagement of VE-cadherin junctions ([1]; 1 nM)	VE-cadherin staining at cell-cell junctions ([1]; 1 nM, compared to DMSO or 0.1 nM)	VE-cadherin staining at cell-cell junctions ([1]; 10 nM)	disengagement of cell junctions ([1]; 10 nM)	time of treatment within which HUVEC cell shrinkage was caused ([2]; 1 nM) [min]	time of treatment within which HUVEC cell shrinkage was induced ([2]; 1 nM) [h]	HUVEC cell shrinkage / morphological change [2, 4]	effect on HUVEC cell morphology (shrinkage) compared with CA4 ([2]; comparison Compound 249 vs CA4)	inhibitory effect on HUVEC migration in vitro (overall) [3]	absolute migrated cell numbers (quantitative analysis, FIG. 5) ([3]; 1 nM)	time after treatment at which the difference in migration inhibition between Compound 249 and CA4 was noticeable (FIG. 6) ([3]; 1 nM) [h]	inhibition of HUVEC migration to the blank area ([3]; 1 nM)	absolute migrated cell numbers (quantitative analysis, FIG. 5) ([3]; 5 nM)	inhibition of HUVEC migration to the blank area ([3]; 5 nM)	inhibition of HUVEC migration compared with CA4 ([3]; comparison Compound 249 vs CA4)	HUVEC cell shrinkage / morphological change ([2]; 10 nM)
COc1ccc(-c2cnoc2-c2cc(OC)c(OC)c(OC)c2)cc1N [Compound 249, 2-methoxy-5-(5-(3,4,5-trimethoxyphenyl)isoxazol-4-yl)aniline]	some of the VE-cadherin junctions were disengaged	reduced	significantly abolished VE-cadherin staining	most of the cell junctions were disengaged	≤ 50	≤ 1	Induces HUVEC Cell Shrinkage; also recorded: caused HUVEC cell shrinkage; also recorded: induced shrinkage of HUVEC cells	stronger effect on both shrinkage and migration than CA4; also recorded: more potent effect on HUVEC cell morphology than CA4	potent inhibitory effect	similar	≤ 4	migration inhibition; also recorded: Inhibits HUVEC Migration; also recorded: significantly blocked migration; also recorded: inhibited HUVEC cell migration	similar	significantly blocked migration	stronger effect on both shrinkage and migration than CA4	–
COc1ccc(/C=C\c2cc(OC)c(OC)c(OC)c2)cc1O [CA4, Combretastatin A4, reference compound]	–	–	–	–	–	–	did not cause obvious morphological changes	–	–	much less of an effect on HUVEC migration	–	did not block the migration event	similar	significantly blocked migration	–	caused a similar change on HUVEC cells
